The values below come from patent US4275072A, “2,6-Dichlorophenyl-substituted amino-imidazole derivatives and use as hypertensive agents” (priority 1979, dated 1981).

Each structure is given as a SMILES string.

For one data set, the system named is Sprague-Dawley male rats. The experiment in a line: diuretic effect: urine volume in rats after intraperitoneal injection. Type of data set: in vivo. As to conditions: for Mean Cumulative Volume of Urine, 0-1 hours / Mean Cumulative Volume of Urine, 0-2 hours / Mean Cumulative Volume of Urine, 0-3 hours / Mean Cumulative Volume of Urine, 0-4 hours / Mean Cumulative Volume of Urine, 0-5 hours: 2 mg/kg intraperitoneally, 6 rats, 10 ml water by gastric tube; for Mean Cumulative Volume of Urine, 0-1 hours: saline control 1.1; for Mean Cumulative Volume of Urine, 0-2 hours: saline control 7.2; for Mean Cumulative Volume of Urine, 0-3 hours: saline control 11.4; for Mean Cumulative Volume of Urine, 0-4 hours / Mean Cumulative Volume of Urine, 0-5 hours: saline control 13.5; for diuretic activity: in words. As to the method: The diuretic effect of the intermediates may be studied by injecting the compounds intraperitoneally to adult Sprague-Dawley male rats after an overnight fast. Simultaneously, 10 ml of water is fed to each rat through a gastric tube.

For data set [1] the following is noted: in words; prior art; cited from earlier work.
Data set [2] deals with anesthetized Sprague-Dawley rats. The experiment in a line: blood pressure and pulse frequency in anesthetized Sprague-Dawley rats, i.v. Type of data set: in vivo. As to the method: The test animals are first anesthetized with urethane. […] The test substance is injected into the femoral vein.
Data set [3] relates to Okamoto-Aoki spontaneous hypertensive rats (SHR). The experiment in a line: blood pressure in unanesthetized spontaneous hypertensive rats (SHR), peroral. As to conditions: 100 mg/kg p.o. Type of data set: in vivo.
Description: (§1) In a further test unanesthetized Okamoto-Aoki spontaneous hypertensive rats (SHR) are used. The test derivative is administered perorally by way of a tube into the stomach. The blood pressure is measured from the tail using an indirect bloodless method.
A short description of data set [4]: anti-hypertensive activity in mammals, overall observations. The note with it: in words; for anti-hypertensive activity: in mammals.
Description: The anti-hypertensive properties of the imidazole derivatives of the invention may be shown by using anesthetized Sprague-Dawley rats of normal weight. The test animals are first anesthetized with urethane. After this the femoral artery is connected by way of a polyethylene tube with a blood pressure transducer. The test substance is injected into the femoral vein. The blood pressure and the pulse frequency are registered with a recorder.
as §1
A further data set relates to gastric ulcers. The experiment in a line: anti-ulcer activity: gastric ulcers induced by anti-inflammatory agents (e.g., indomethacin). Type of data set: in vivo. As to conditions: i.p., ulcers counted after three hours, fasted female rats.
Data set [5] in a line: preliminary tests of further pharmacological activities. The note with it: in words.
In the next data set the test system is rats. The experiment in a line: toxicity (LD50) in rats. Type of data set: in vivo. The note with it: in words.

With `O=C(O)Cc1c[nH]c(Nc2c(Cl)cccc2Cl)n1` [Compound IIa, 4-[2-(2',6'-dichloroanilino)]-imidazoleacetic acid], in the data set with Sprague-Dawley male rats, the “Mean Cumulative Volume of Urine, 0-1 hours” value worked out at 1.3 mL; the “Mean Cumulative Volume of Urine, 0-2 hours” value was determined as 8.1 mL; the “Mean Cumulative Volume of Urine, 0-3 hours” value turned out to be 12.9 mL; the “Mean Cumulative Volume of Urine, 0-4 hours” value turned out to be 14.3 mL. In addition, in the data set with Sprague-Dawley male rats, the “Mean Cumulative Volume of Urine, 0-5 hours” value came out at 14.9 mL and the diuretic activity result was “significant diuretic activity”.

Regarding `Clc1cccc(Cl)c1N=C1NCCN1` [clonidine, 2-(2,6-dichloroanilino)-2-imidazoline], the “temporary rise of the blood pressure at the beginning of administration” value in data set [1] is on record as “temporary rise in blood pressure at the beginning of administration”.

Turning to `CCOC(=O)Cc1c[nH]c(Nc2c(Cl)cccc2Cl)n1` [Compound IIb, 4-[2-(2',6'-dichloroanilino)]-imidazoleacetic acid ethyl ester], in the data set with Sprague-Dawley male rats, the “Mean Cumulative Volume of Urine, 0-1 hours” value came to 3.4 mL; the “Mean Cumulative Volume of Urine, 0-2 hours” value stood at 9.5 mL; the “Mean Cumulative Volume of Urine, 0-3 hours” value was 13.4 mL; the “Mean Cumulative Volume of Urine, 0-4 hours” value stood at 14.4 mL. Further, the “Mean Cumulative Volume of Urine, 0-5 hours” value in the data set with Sprague-Dawley male rats was 14.4 mL.

With `Cc1cn(-c2c(Cl)cccc2Cl)c(N)n1` [compound I, 1-(2',6'-dichlorophenyl)-2-amino-4-methyl-imidazole], in data set [2] (10 mg/kg i.v.), the “Average reduction of blood pressure” value is given as 25% and the “Average reduction of pulse frequency” value amounted to 20%. In addition, in data set [2] (3,3 mg/kg i.v.), the “Average reduction of blood pressure” value was determined as 20%. Besides, in data set [3], the “Average reduction of blood pressure” value is listed as 35%. Besides, in data set [4], the anti-hypertensive activity entry is “excellent anti-hypertensive activity”; the “reduction of the blood pressure, character and duration” value is “smooth and of relatively long duration”; the “temporary rise of the blood pressure at the beginning of the administration” value was “No temporary rise of the blood pressure is observed”. For the same molecule, in the data set with gastric ulcers (Rattus norvegicus, ip, 3 h, doses as small as, read-out: smallest dose effective in reducing the number of ulcers), the minimal effective dose is 1 mg/kg. Moreover, the “dose that prevents the formation of gastric ulcers” value in the data set on gastric ulcers was approximately 20 mg/kg. In addition, in data set [5], the analgesic activity result is reported as “analgesic”, the anti-arrhythmic activity result was “anti-arrhythmic activity”, the anti-convulsant activity result is reported as “anti-convulsant” and the anti-depressant activity result is “anti-depressant”. In addition, in data set [5], the anti-inflammatory activity entry was “anti-inflammatory” and the anti-ulcer activity result is “anti-ulcer”.

Take `Cc1c[nH]c(Nc2c(Cl)cccc2Cl)n1` [compound II, 2-(2',6'-dichloroanilino)-4-methyl-imidazole]: the “Average reduction of blood pressure” value in data set [2] (10 mg/kg i.v.) was 25%. Besides, in data set [4], the anti-hypertensive activity result is listed as “excellent anti-hypertensive activity”; the “reduction of the blood pressure, character and duration” value is “smooth and of relatively long duration”; the “temporary rise of the blood pressure at the beginning of the administration” value was “No temporary rise of the blood pressure is observed”. In addition, in the data set with rats, the toxicity result was “low toxicity”. In data set [5], the analgesic activity entry is “analgesic”, the anti-arrhythmic activity result is listed as “anti-arrhythmic activity”, the anti-convulsant activity result is recorded as “anti-convulsant” and the anti-depressant activity result was “anti-depressant”. For the same molecule, in data set [5], the anti-inflammatory activity entry is on record as “anti-inflammatory” and the anti-ulcer activity result is listed as “anti-ulcer”.

Regarding `CCOC(=O)Cc1cn(-c2c(Cl)cccc2Cl)c(N)n1` [Compound Ib, 4-[1-(2',6'-dichlorophenyl)-2-amino]-imidazoleacetic acid ethyl ester], in the data set with Sprague-Dawley male rats, the “Mean Cumulative Volume of Urine, 0-1 hours” value amounted to 2.3 mL; the “Mean Cumulative Volume of Urine, 0-2 hours” value was 10.9 mL; the “Mean Cumulative Volume of Urine, 0-3 hours” value was 12.3 mL; the “Mean Cumulative Volume of Urine, 0-4 hours” value came out at 14.5 mL. Also, the “Mean Cumulative Volume of Urine, 0-5 hours” value in the data set with Sprague-Dawley male rats came to 15.7 mL.

For `Nc1nc(CC(=O)O)cn1-c1c(Cl)cccc1Cl` [Compound Ia, 4-[1-(2',6'-dichlorophenyl)-2-amino]-imidazoleacetic acid], in the data set on Sprague-Dawley male rats, the “Mean Cumulative Volume of Urine, 0-1 hours” value was determined as 2.6 mL; the “Mean Cumulative Volume of Urine, 0-2 hours” value stood at 10.2 mL; the “Mean Cumulative Volume of Urine, 0-3 hours” value came out at 13.9 mL; the “Mean Cumulative Volume of Urine, 0-4 hours” value worked out at 14.7 mL. In the data set with Sprague-Dawley male rats, the “Mean Cumulative Volume of Urine, 0-5 hours” value stood at 16.4 mL and the diuretic activity result was “significant diuretic activity”.
